# Measurements from patent publication US11999727B2 (Tango Therapeutics, Inc., priority 2020, dated 2024).
# What was measured:
# PRMT5 [1] = target: T1, PRMT5 (Homo sapiens, UniProt O14744); experiment: PRMT5 biochemical IC50 assay with SAM as cofactor; settings: PRMT5, SAM as cofactor; read-out: SAM IC50
# T1 construct: purchased Viva (custom protein)
# PRMT5 [2] = target: T1, PRMT5; experiment: PRMT5 biochemical IC50 assay with no cofactor; settings: PRMT5, no cofactor; read-out: No Cofactor/rel IC50
# Description: Table 1 indicates IC50 values (μM) against PRMT5 for exemplary compounds in the presence of SAM as cofactor, with no cofactor, and with MTA as cofactor, respectively (columns 4-6). […] Ki values can be calculated from the IC50 values as described in the Examples section. As detailed in the Examples section, for the assay performed in the presence of SAM, IC50=Ki×1.5 (Ki=IC50/1.5).
# PRMT5 [3] = target: T1, PRMT5; experiment: PRMT5 biochemical IC50 assay with MTA as cofactor; settings: PRMT5, MTA as cofactor; read-out: MTA IC50
# [4] = test system: HAP1 MTAP-intact cell line; experiment: SDMA in-cell western assay, HAP1 MTAP-intact; format: cell-based; settings: Homo sapiens, HAP1, SDMA in-cell western, HAP1 MTAP-intact; read-out: MTAP HAP1 intact IC50
# How it was run: (§1)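 Isogenic HAP1 pair: the MTAP-intact line expresses endogenous MTAP, and the deleted line is MTAP-null. Symmetric dimethylarginine was detected by in-cell western and IC50 values derived for each line.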
# [5] = test system: HAP1 MTAP-deleted cell line; experiment: SDMA in-cell western assay, HAP1 MTAP-deleted; format: cell-based; settings: for IC50: Homo sapiens, HAP1, SDMA in-cell western, HAP1 MTAP-deleted, read-out: HAP 1 MTAP deleted IC50; for MTAP intact/deleted ratio: IC50 ratio HAP1 MTAP-intact / HAP1 MTAP-deleted, SDMA in-cell western
# How it was run: as §1
# [6] = test system: HAP1 MTAP-deleted cell line; experiment: Viability assay, MTAP-deleted cell line; format: cell-based; settings: Homo sapiens, HAP1, viability assay, MTAP-deleted cell line; read-out: HAP1 MTAP deleted viability
# Description: Table 1 additionally indicates IC50 values in a viability assay for the MTAP-deleted cell line (column 10), indicating the effect of treatment with compound on cell survival.
# T1 sequence (O14744 whole entry): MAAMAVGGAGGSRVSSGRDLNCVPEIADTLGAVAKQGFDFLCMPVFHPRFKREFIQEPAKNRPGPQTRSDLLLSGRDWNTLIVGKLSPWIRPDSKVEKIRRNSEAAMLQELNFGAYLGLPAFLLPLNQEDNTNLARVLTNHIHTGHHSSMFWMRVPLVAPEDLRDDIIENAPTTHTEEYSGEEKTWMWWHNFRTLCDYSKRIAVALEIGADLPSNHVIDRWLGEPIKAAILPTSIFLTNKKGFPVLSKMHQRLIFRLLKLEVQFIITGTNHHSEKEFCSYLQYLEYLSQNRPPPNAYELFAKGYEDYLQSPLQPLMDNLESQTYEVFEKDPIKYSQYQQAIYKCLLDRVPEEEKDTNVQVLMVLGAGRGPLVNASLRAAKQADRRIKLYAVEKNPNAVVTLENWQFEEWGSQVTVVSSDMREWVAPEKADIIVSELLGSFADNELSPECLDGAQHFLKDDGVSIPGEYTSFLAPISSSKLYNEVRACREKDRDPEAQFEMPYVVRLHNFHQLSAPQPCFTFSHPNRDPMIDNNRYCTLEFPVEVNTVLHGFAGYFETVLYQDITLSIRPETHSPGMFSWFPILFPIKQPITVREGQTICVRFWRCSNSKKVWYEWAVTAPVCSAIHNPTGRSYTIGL
# T1 sequence (Q9BQA1 whole entry partner): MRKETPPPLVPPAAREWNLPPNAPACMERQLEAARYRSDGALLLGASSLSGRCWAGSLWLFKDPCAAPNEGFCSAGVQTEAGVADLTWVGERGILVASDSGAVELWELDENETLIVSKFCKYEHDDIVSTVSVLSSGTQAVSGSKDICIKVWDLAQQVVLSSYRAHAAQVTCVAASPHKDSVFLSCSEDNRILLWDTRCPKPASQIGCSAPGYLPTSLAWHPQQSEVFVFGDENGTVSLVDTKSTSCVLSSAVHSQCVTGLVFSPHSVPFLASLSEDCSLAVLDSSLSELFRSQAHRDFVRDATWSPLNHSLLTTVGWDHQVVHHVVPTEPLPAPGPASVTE
IC50 (PRMT5 [1]),IC50 (PRMT5 [2]),IC50 (PRMT5 [3]),IC50 [4],IC50 [5],SMILES,MTAP intact/deleted ratio [5],IC50 [6]
50 to 500 nM,50 to 500 nM,50 to 500 nM,> 1000 nM,> 1000 nM,"Cc1cc(NC(=O)C(=O)N2C[C@H](C)CC[C@H]2c2ccc(NS(C)(=O)=O)nc2)cnc1N (single isomer, unassigned) [Compound 980]",B (an IC50 ratio greater than or equal to 3 fold but lower than 10 fold),> 10000 nM
> 500 nM,50 to 500 nM,< 50 nM,> 1000 nM,100 to 1000 nM,"COc1ncc(NC(=O)C(=O)N2C[C@H](C)CC[C@H]2c2ccc(NS(C)(=O)=O)nc2)cc1C(N)=O (single isomer, unassigned) [Compound 986]",A (an IC50 ratio greater than or equal to 10 fold),1000 to 10000 nM
> 500 nM,50 to 500 nM,< 50 nM,> 1000 nM,100 to 1000 nM,"Cc1cc(NC(=O)C(=O)N2C[C@@H](C)CC[C@@H]2c2ccc3c(c2)CCNC3=O)cnc1N (single isomer, unassigned) [Compound 988]",A (an IC50 ratio greater than or equal to 10 fold),1000 to 10000 nM
50 to 500 nM,50 to 500 nM,50 to 500 nM,> 1000 nM,100 to 1000 nM,"CCc1cc(NC(=O)C(=O)N2C[C@H](C)CC[C@H]2c2ccc(NS(C)(=O)=O)nc2)cnc1N (single isomer, unassigned) [Compound 995]",A (an IC50 ratio greater than or equal to 10 fold),> 10000 nM
50 to 500 nM,< 50 nM,< 50 nM,< 100 nM,< 100 nM,"Cc1cc(NC(=O)C(=O)N2C[C@@H](C)CC[C@@H]2c2ccc3sc(N)nc3c2)cnc1N (single isomer, unassigned) [Compound 997]",B (an IC50 ratio greater than or equal to 3 fold but lower than 10 fold),< 1000 nM
> 500 nM,> 500 nM,> 500 nM,> 1000 nM,> 1000 nM,"Cc1cc(NC(=O)C(=O)N2C[C@@H](C)CC[C@@H]2c2ccc(NS(C)(=O)=O)nc2)cnc1N (single isomer, unassigned) [Compound 998]",C (an IC50 ratio of less than 3 fold),> 10000 nM
50 to 500 nM,50 to 500 nM,< 50 nM,> 1000 nM,> 1000 nM,"C[C@@H]1CC[C@@H](c2ccc(NS(C)(=O)=O)nc2)N(C(=O)C(=O)Nc2cncc(C(N)=O)c2)C1 (single isomer, unassigned) [Compound 1003]",C (an IC50 ratio of less than 3 fold),> 10000 nM
50 to 500 nM,50 to 500 nM,< 50 nM,> 1000 nM,< 100 nM,"COc1ncc(NC(=O)C(=O)N2C[C@@H](C)CC[C@@H]2c2cc3[nH]ncc3s2)cc1C(N)=O (single isomer, unassigned) [Compound 1006, 2-methoxy-5-(2-(5-methyl-2-(1H-thieno[3,2-c]pyrazol-5-yl)piperidin-1-yl)-2-oxoacetamido)nicotinamide]",A (an IC50 ratio greater than or equal to 10 fold),< 1000 nM
> 500 nM,> 500 nM,> 500 nM,> 1000 nM,> 1000 nM,"C[C@@H]1CC[C@@H](c2cc[nH]n2)N(C(=O)C(=O)Nc2cncc(C(N)=O)c2)C1 (single isomer, unassigned) [Compound 1007]",B (an IC50 ratio greater than or equal to 3 fold but lower than 10 fold),> 10000 nM
> 500 nM,> 500 nM,> 500 nM,> 1000 nM,> 1000 nM,"Cc1cc(NC(=O)C(=O)N2C[C@H](C)CC[C@H]2c2ccc(C(F)F)nc2)cnc1N (single isomer, unassigned) [Compound 1011]",C (an IC50 ratio of less than 3 fold),> 10000 nM
50 to 500 nM,50 to 500 nM,< 50 nM,100 to 1000 nM,100 to 1000 nM,"Cc1cc(NC(=O)C(=O)N2C[C@@H](C)CC[C@@H]2c2ccc(C(F)(F)F)nc2)cnc1N (single isomer, unassigned) [Compound 1012]",C (an IC50 ratio of less than 3 fold),1000 to 10000 nM
50 to 500 nM,50 to 500 nM,< 50 nM,100 to 1000 nM,< 100 nM,"CCc1ccc([C@@H]2CC[C@@H](C)CN2C(=O)C(=O)Nc2cnc(N)c(C)c2)cn1 (single isomer, unassigned) [Compound 1013]",B (an IC50 ratio greater than or equal to 3 fold but lower than 10 fold),1000 to 10000 nM
50 to 500 nM,< 50 nM,< 50 nM,< 100 nM,< 100 nM,"Cc1cc(NC(=O)C(=O)N2C[C@H](C)CC[C@H]2c2ccc(N3CCN(C)CC3)nc2)cnc1N (single isomer, unassigned) [Compound 1014]",B (an IC50 ratio greater than or equal to 3 fold but lower than 10 fold),< 1000 nM
> 500 nM,> 500 nM,> 500 nM,> 1000 nM,> 1000 nM,"Cc1cc(NC(=O)C(=O)N2C[C@H](C)CC[C@H]2c2ccc(C(F)(F)F)nc2)cnc1N (single isomer, unassigned) [Compound 1015]",C (an IC50 ratio of less than 3 fold),> 10000 nM
> 500 nM,> 500 nM,> 500 nM,> 1000 nM,> 1000 nM,"CCc1ccc([C@H]2CC[C@H](C)CN2C(=O)C(=O)Nc2cnc(N)c(C)c2)cn1 (single isomer, unassigned) [Compound 1016]",C (an IC50 ratio of less than 3 fold),> 10000 nM
> 500 nM,> 500 nM,> 500 nM,> 1000 nM,> 1000 nM,"Cc1cc(NC(=O)C(=O)N2C[C@@H](C)CC[C@@H]2c2ccc(N3CCN(C)CC3)nc2)cnc1N (single isomer, unassigned) [Compound 1017]",C (an IC50 ratio of less than 3 fold),< 1000 nM
50 to 500 nM,50 to 500 nM,< 50 nM,100 to 1000 nM,100 to 1000 nM,"Cc1cc(NC(=O)C(=O)N2C[C@@H](C)CC[C@@H]2c2ccc(C(F)F)nc2)cnc1N (single isomer, unassigned) [Compound 1018]",B (an IC50 ratio greater than or equal to 3 fold but lower than 10 fold),1000 to 10000 nM
> 500 nM,50 to 500 nM,< 50 nM,> 1000 nM,100 to 1000 nM,"Cc1cc(NC(=O)C(=O)N2C[C@@H](C)CC[C@@H]2c2cscn2)cnc1N (single isomer, unassigned) [Compound 1020]",A (an IC50 ratio greater than or equal to 10 fold),1000 to 10000 nM
